Test results published in the supplement of paper PMC10307832.

Experiments:
Experiment in all cases: relative viability (nuclei count vs DMSO), 5 days (fraction); higher = more cells survive
BEN = test system: BEN
How it was run: (§1)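 Cells from lung cancer lines were seeded into 1536-well plates and, one day later, dosed by pin tool. Treatments were either a single drug or a fixed dose of an anchor drug with five library-drug doses (not always all listed) in √10 steps. After 5 days, nuclei were stained in a one-step fixation (final 0.05% Triton X-100, 1% formaldehyde, 1 ug/ml Hoechst) and counted on 4× images, and relative viability is the treated-to-vehicle nuclei ratio, as the median of duplicate plates.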

ChaGo-K-1 = test system: ChaGo-K-1
How it was run: as §1

HCC-827 = test system: HCC-827
How it was run: as §1

HOP-62 = test system: HOP-62
How it was run: as §1

LCLC-103H = test system: LCLC-103H
How it was run: as §1

LOU-NH91 = test system: LOU-NH91
How it was run: as §1

LXF-289 = test system: LXF-289
How it was run: as §1

NCI-H1355 = test system: NCI-H1355
How it was run: as §1

NCI-H1437 = test system: NCI-H1437
How it was run: as §1

NCI-H1666 = test system: NCI-H1666
How it was run: as §1

NCI-H1993 = test system: NCI-H1993
How it was run: as §1

NCI-H2126 = test system: NCI-H2126
How it was run: as §1

NCI-H441 = test system: NCI-H441
How it was run: as §1

NCI-H647 = test system: NCI-H647
How it was run: as §1

NCI-H661 = test system: NCI-H661
How it was run: as §1

NCI-H727 = test system: NCI-H727
How it was run: as §1

PC-14 = test system: PC-14
How it was run: as §1

RERF-LC-KJ = test system: RERF-LC-KJ
How it was run: as §1

## Cc1cn(-c2cc(NC(=O)c3ccc(C)c(Nc4nccc(-c5cccnc5)n4)c3)cc(C(F)(F)F)c2)cn1 [Nilotinib] + CC(C)C[C@H](NC(=O)[C@H](Cc1ccccc1)NC(=O)c1cnccn1)B(O)O [Bortezomib] (partner 0.002 µM)
BEN; first compound 0.001 µM
  relative viability: 0.782
BEN; first compound 0.003162 µM
  relative viability: 0.843
BEN; first compound 0.01 µM
  relative viability: 0.788
BEN; first compound 0.1 µM
  relative viability: 0.721
ChaGo-K-1; first compound 0.001 µM
  relative viability: 1.44
ChaGo-K-1; first compound 0.003162 µM
  relative viability: 1.05
ChaGo-K-1; first compound 0.01 µM
  relative viability: 1.14
ChaGo-K-1; first compound 0.03162 µM
  relative viability: 0.639
ChaGo-K-1; first compound 0.1 µM
  relative viability: 0.898
HCC-827; first compound 0.003162 µM
  relative viability: 1.19
HCC-827; first compound 0.01 µM
  relative viability: 1.08
HCC-827; first compound 0.03162 µM
  relative viability: 1.07
HCC-827; first compound 0.1 µM
  relative viability: 1.06
HOP-62; first compound 0.001 µM
  relative viability: 0.706
HOP-62; first compound 0.003162 µM
  relative viability: 0.861
HOP-62; first compound 0.01 µM
  relative viability: 0.28
HOP-62; first compound 0.03162 µM
  relative viability: 0.576
LCLC-103H; first compound 0.001 µM
  relative viability: 1.08
LCLC-103H; first compound 0.003162 µM
  relative viability: 1.29
LCLC-103H; first compound 0.03162 µM
  relative viability: 1.15
LCLC-103H; first compound 0.1 µM
  relative viability: 0.909
LOU-NH91; first compound 0.001 µM
  relative viability: 0.523
LOU-NH91; first compound 0.003162 µM
  relative viability: 0.46
LOU-NH91; first compound 0.01 µM
  relative viability: 0.404
LOU-NH91; first compound 0.03162 µM
  relative viability: 0.473
LOU-NH91; first compound 0.1 µM
  relative viability: 0.524
LXF-289; first compound 0.001 µM
  relative viability: 0.977
LXF-289; first compound 0.003162 µM
  relative viability: 1.22
LXF-289; first compound 0.01 µM
  relative viability: 1.11
LXF-289; first compound 0.03162 µM
  relative viability: 0.977
LXF-289; first compound 0.1 µM
  relative viability: 0.692
NCI-H1355; first compound 0.001 µM
  relative viability: 1.09
NCI-H1355; first compound 0.003162 µM
  relative viability: 1.52
NCI-H1355; first compound 0.01 µM
  relative viability: 1.28
NCI-H1355; first compound 0.03162 µM
  relative viability: 1.15
NCI-H1355; first compound 0.1 µM
  relative viability: 0.639
NCI-H1437; first compound 0.001 µM
  relative viability: 0.485
NCI-H1437; first compound 0.003162 µM
  relative viability: 0.505
NCI-H1437; first compound 0.01 µM
  relative viability: 0.651
NCI-H1437; first compound 0.03162 µM
  relative viability: 0.367
NCI-H1437; first compound 0.1 µM
  relative viability: 0.161
NCI-H1666; first compound 0.001 µM
  relative viability: 0.774
NCI-H1666; first compound 0.01 µM
  relative viability: 0.649
NCI-H1666; first compound 0.03162 µM
  relative viability: 0.985
NCI-H1666; first compound 0.1 µM
  relative viability: 0.829
NCI-H1993; first compound 0.001 µM
  relative viability: 1.11
NCI-H1993; first compound 0.003162 µM
  relative viability: 0.878
NCI-H1993; first compound 0.01 µM
  relative viability: 1.06
NCI-H1993; first compound 0.03162 µM
  relative viability: 0.896
NCI-H1993; first compound 0.1 µM
  relative viability: 0.953
NCI-H2126; first compound 0.001 µM
  relative viability: 1.12
NCI-H2126; first compound 0.003162 µM
  relative viability: 1.18
NCI-H2126; first compound 0.01 µM
  relative viability: 1.08
NCI-H2126; first compound 0.03162 µM
  relative viability: 1.08
NCI-H2126; first compound 0.1 µM
  relative viability: 0.624
NCI-H441; first compound 0.001 µM
  relative viability: 0.33
NCI-H441; first compound 0.003162 µM
  relative viability: 0.735
NCI-H441; first compound 0.01 µM
  relative viability: 0.492
NCI-H441; first compound 0.1 µM
  relative viability: 0.219
NCI-H647; first compound 0.001 µM
  relative viability: 0.79
NCI-H647; first compound 0.003162 µM
  relative viability: 1.52
NCI-H647; first compound 0.03162 µM
  relative viability: 0.57
NCI-H647; first compound 0.1 µM
  relative viability: 0.951
NCI-H661; first compound 0.001 µM
  relative viability: 0.752
NCI-H661; first compound 0.003162 µM
  relative viability: 0.831
NCI-H661; first compound 0.01 µM
  relative viability: 1.02
NCI-H661; first compound 0.03162 µM
  relative viability: 0.642
NCI-H661; first compound 0.1 µM
  relative viability: 0.815
NCI-H727; first compound 0.001 µM
  relative viability: 0.848
NCI-H727; first compound 0.01 µM
  relative viability: 0.976
NCI-H727; first compound 0.03162 µM
  relative viability: 0.678
NCI-H727; first compound 0.1 µM
  relative viability: 0.484
PC-14; first compound 0.003162 µM
  relative viability: 1.05
PC-14; first compound 0.01 µM
  relative viability: 1.02
PC-14; first compound 0.03162 µM
  relative viability: 0.797
PC-14; first compound 0.1 µM
  relative viability: 0.867
RERF-LC-KJ; first compound 0.001 µM
  relative viability: 1.12
RERF-LC-KJ; first compound 0.003162 µM
  relative viability: 1.14
RERF-LC-KJ; first compound 0.01 µM
  relative viability: 1.22
RERF-LC-KJ; first compound 0.03162 µM
  relative viability: 1.05
RERF-LC-KJ; first compound 0.1 µM
  relative viability: 1.02
